From ChEMBL document CHEMBL1201862, “PubChem BioAssay data set” (2004)
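Cultured in 96-well plates, cells were exposed to test compound for 48 hours across five concentrations. At the GI50, growth is halved.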 Active and inactive are the calls of the source. Rule as the data show it: active = GI50 up to about 1.1 µM and inactive = higher.

How the values were obtained:
Experiment in all cases: inhibition of tumour cell growth, NCI panel, 48 h
COLO 205 = tested on: COLO 205
OVCAR-4 = tested on: OVCAR-4
OVCAR-3 = tested on: OVCAR-3
SK-OV-3 = tested on: SK-OV-3
UACC-257 = tested on: UACC-257
NCI-H23 = tested on: NCI-H23
BT-549 = tested on: BT-549
786-0 = tested on: 786-0
EKVX = tested on: EKVX
Malme-3M = tested on: Malme-3M
HCT-116 = tested on: HCT-116
CAKI-1 = tested on: CAKI-1
SK-MEL-2 = tested on: SK-MEL-2
SN12C = tested on: SN12C
SNB-75 = tested on: SNB-75
ACHN = tested on: ACHN
UO-31 = tested on: UO-31
SR = tested on: SR
LOX IMVI = tested on: LOX IMVI
T47D = tested on: T47D

Measured: GI50

Cc1cccc2c1nc1n2C(=O)c2ccccc2-1
inactive: COLO 205 > 100 µM | OVCAR-4 > 100 µM | OVCAR-3 > 100 µM | SK-OV-3 > 100 µM | UACC-257 > 100 µM | NCI-H23 > 100 µM | BT-549 > 100 µM | 786-0 > 100 µM | EKVX > 100 µM | Malme-3M > 100 µM | HCT-116 > 100 µM | CAKI-1 > 100 µM | SK-MEL-2 > 100 µM | SN12C > 100 µM | SNB-75 > 100 µM | ACHN > 100 µM | UO-31 > 100 µM | SR > 100 µM

CC(C)C(Br)CCC1=CCC(Br)(Br)C1 (stereo not given)
inactive: COLO 205 15.7 µM | OVCAR-4 9.1 µM | OVCAR-3 13 µM | SK-OV-3 13.1 µM | UACC-257 14.5 µM | NCI-H23 9.1 µM | BT-549 20.2 µM | 786-0 15.7 µM | EKVX 17.9 µM | Malme-3M 14.6 µM | HCT-116 14.6 µM | CAKI-1 17.2 µM | SK-MEL-2 5.77 µM | SN12C 4.2 µM | LOX IMVI 1.41 µM | SNB-75 10.9 µM | ACHN 16.9 µM | UO-31 10.2 µM | SR 2.62 µM

NC(=O)OCc1c(-c2ccccc2)nn(-c2ccccc2)c1COC(N)=O
inactive: COLO 205 > 100 µM | OVCAR-4 > 100 µM | OVCAR-3 > 100 µM | UACC-257 > 100 µM | NCI-H23 > 100 µM | BT-549 > 100 µM | 786-0 > 100 µM | T47D > 100 µM | Malme-3M > 100 µM | HCT-116 > 100 µM | CAKI-1 > 100 µM | SK-MEL-2 > 100 µM | SN12C > 100 µM | SNB-75 45.7 µM | UO-31 > 100 µM

CCOc1ccc(N/C(=C(/C(Cl)=C(/Cl)NC(C)(C)C)[N+](=O)[O-])n2nnc3ccccc32)cc1
inactive: COLO 205 21.1 µM | OVCAR-4 25.6 µM | OVCAR-3 25.9 µM | SK-OV-3 59.8 µM | UACC-257 53.7 µM | NCI-H23 22.6 µM | BT-549 17.9 µM | 786-0 18 µM | EKVX 39 µM | T47D 15.5 µM | Malme-3M 15.8 µM | HCT-116 18.6 µM | CAKI-1 19.3 µM | SK-MEL-2 31.6 µM | SN12C 34 µM | SNB-75 24.2 µM | ACHN 31.8 µM | UO-31 29.9 µM

CCOC(=O)c1c(NS(=O)(=O)c2ccc(C)cc2)sc2c1CCCC2
inactive: COLO 205 19 µM | OVCAR-3 15 µM | UACC-257 35 µM | NCI-H23 18.1 µM | BT-549 31.7 µM | 786-0 35.2 µM | EKVX 32.6 µM | T47D 43.3 µM | HCT-116 21.4 µM | CAKI-1 38.9 µM | SK-MEL-2 17.3 µM | SN12C 31.8 µM | SNB-75 27.1 µM | ACHN 29.9 µM | UO-31 21.1 µM

CN(C)CCNC(=O)c1cccc2c(NC(CS)C(=O)O)c3ccccc3nc12 (stereo not given)
inactive: COLO 205 3.01 µM | OVCAR-4 17.1 µM | OVCAR-3 13 µM | SK-OV-3 9.86 µM | UACC-257 10.1 µM | NCI-H23 8.22 µM | BT-549 14.5 µM | 786-0 6.64 µM | EKVX 11.3 µM | Malme-3M 2.52 µM | HCT-116 4.73 µM | CAKI-1 5.75 µM | SK-MEL-2 12.1 µM | SN12C 2.6 µM | LOX IMVI 4.41 µM | SNB-75 14.4 µM | ACHN 4.49 µM | UO-31 3.6 µM | SR 96.2 µM

COc1cc(-c2nc(SC)nc3c2CCc2ccccc2-3)cc(OC)c1OC
inactive: COLO 205 53.5 µM | OVCAR-4 65 µM | OVCAR-3 95.1 µM | SK-OV-3 > 100 µM | UACC-257 90.8 µM | NCI-H23 > 100 µM | BT-549 > 100 µM | 786-0 50.6 µM | EKVX 29.1 µM | T47D 26.8 µM | HCT-116 47.8 µM | SK-MEL-2 > 100 µM | SN12C > 100 µM | LOX IMVI 91.8 µM | SNB-75 > 100 µM | ACHN > 100 µM | UO-31 46.3 µM

CCC(=O)/C(=C\I)c1ccccc1
inactive: COLO 205 2.05 µM | OVCAR-3 1.67 µM | SK-OV-3 16.6 µM | UACC-257 3.55 µM | NCI-H23 3.71 µM | BT-549 1.79 µM | 786-0 1.78 µM | EKVX 19.2 µM | T47D 1.68 µM | Malme-3M 1.67 µM | HCT-116 1.79 µM | SK-MEL-2 2.1 µM | SN12C 2.16 µM | LOX IMVI 1.27 µM | SNB-75 1.52 µM | UO-31 2.05 µM

CCO/C=C(\C(=O)OC)S(=O)(=O)c1ccc(C)cc1
inactive: COLO 205 > 100 µM | OVCAR-4 > 100 µM | OVCAR-3 > 100 µM | SK-OV-3 > 100 µM | UACC-257 > 100 µM | NCI-H23 > 100 µM | 786-0 > 100 µM | EKVX > 100 µM | T47D > 100 µM | Malme-3M > 100 µM | HCT-116 > 100 µM | SK-MEL-2 > 100 µM | SN12C > 100 µM | LOX IMVI > 100 µM | SNB-75 > 100 µM | ACHN > 100 µM | UO-31 61.7 µM | SR > 100 µM

COc1cc(/C=C2\Sc3scc(-c4cccc([N+](=O)[O-])c4)[n+]3C2=O)cc(OC)c1OC
inactive: COLO 205 3.87 µM | OVCAR-4 15.3 µM | OVCAR-3 15.8 µM | SK-OV-3 23.6 µM | UACC-257 12.5 µM | NCI-H23 15.1 µM | 786-0 10.4 µM | EKVX 12.4 µM | T47D 5.56 µM | Malme-3M 13.8 µM | HCT-116 11.1 µM | CAKI-1 5.98 µM | SK-MEL-2 17 µM | SN12C 18.1 µM | LOX IMVI 10.7 µM | SNB-75 1.47 µM | ACHN 14.9 µM | UO-31 6.37 µM | SR 2.05 µM

Oc1ccc(O)c(Sc2nnc(CCCCCCCCc3nnc(Sc4cc(O)ccc4O)o3)o2)c1
inactive: COLO 205 48.3 µM | OVCAR-4 33.1 µM | SK-OV-3 > 100 µM | UACC-257 > 100 µM | NCI-H23 > 100 µM | BT-549 74.8 µM | 786-0 19 µM | EKVX > 100 µM | Malme-3M 57.3 µM | HCT-116 18.1 µM | CAKI-1 28.8 µM | SK-MEL-2 > 100 µM | SN12C 90.6 µM | SNB-75 > 100 µM | ACHN 28.1 µM | UO-31 16.6 µM
